pKi: −log10 of the molar value.
Tests used:
[1] = target: Carbonic anhydrase 9 (Homo sapiens, UniProt Q16790); assay: Inhibition of human recombinant carbonic anhydrase 9 by stopped-flow CO2 hydration assay
[2] = target: Carbonic anhydrase 1 (Homo sapiens, UniProt P00915); assay: Inhibition of human recombinant carbonic anhydrase 1 by stopped-flow CO2 hydration assay
Carbonic anhydrase 1, sequence (P00915 whole entry): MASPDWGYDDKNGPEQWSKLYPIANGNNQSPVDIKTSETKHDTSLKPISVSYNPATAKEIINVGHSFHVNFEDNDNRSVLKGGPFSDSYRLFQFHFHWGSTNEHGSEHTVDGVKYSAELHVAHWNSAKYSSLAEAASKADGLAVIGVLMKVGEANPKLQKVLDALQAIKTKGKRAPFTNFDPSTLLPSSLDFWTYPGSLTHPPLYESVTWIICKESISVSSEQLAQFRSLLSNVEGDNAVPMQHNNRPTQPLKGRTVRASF

SMILES | pKi [1] | pKi [2]
CC(=O)OC[C@H]1O[C@@H](S(=O)(=O)NCCCOS(N)(=O)=O)[C@H](OC(C)=O)[C@@H](OC(C)=O)[C@@H]1OC(C)=O | 6.67 | 
CC(=O)OC[C@H]1O[C@@H](S(=O)(=O)N2CC[C@@H](OS(N)(=O)=O)C2)[C@H](OC(C)=O)[C@@H](OC(C)=O)[C@@H]1OC(C)=O | 8.70 | 
COC(=O)[C@@H]1C[C@@H](OS(N)(=O)=O)CN1S(=O)(=O)[C@@H]1O[C@H](COC(C)=O)[C@@H](OC(C)=O)[C@H](OC(C)=O)[C@H]1OC(C)=O | 8.70 | 
COC(=O)[C@H](CS(N)(=O)=O)NS(=O)(=O)[C@@H]1O[C@H](COC(C)=O)[C@@H](OC(C)=O)[C@H](OC(C)=O)[C@H]1OC(C)=O |  | < 4.70
NS(=O)(=O)OCCCNS(=O)(=O)[C@@H]1O[C@H](CO)[C@@H](O)[C@H](O)[C@H]1O | 8.70 | 
NS(=O)(=O)OC1CCN(S(=O)(=O)[C@@H]2O[C@H](CO)[C@@H](O)[C@H](O)[C@H]2O)CC1 |  | < 4.70
NS(=O)(=O)O[C@@H]1CCN(S(=O)(=O)[C@@H]2O[C@H](CO)[C@@H](O)[C@H](O)[C@H]2O)C1 | 8.70 | 

From ChEMBL document CHEMBL3351783, “Structural insights into carbonic anhydrase IX isoform specificity of carbohydrate-based sulfamates” (J Med Chem, 2014)
